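Step 1: Grow cells in 96-well plates. Step 2: Expose to compound for 48 hours at 5 concentrations. Step 3: Interpolate endpoints linearly; if unreached, use highest concentration. GI50 marks 50% less growth.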 Activity calls are given as the source filed them. Cut-off read from the data, not from the text of the source: active = GI50 up to about 1.1 µM and inactive = higher.
Tests used:
Assay in all cases: NCI anticancer screen, dose series, 48 h
[1] = test system: SNB-19
[2] = test system: RXF 393
[3] = test system: UO-31
[4] = test system: HCT-116
[5] = test system: OVCAR-8
[6] = test system: COLO 205
[7] = test system: HCC 2998
[8] = test system: UACC-62
[9] = test system: LXFL 529
[10] = test system: RPMI-8226
[11] = test system: SF-268
[12] = test system: CAKI-1
[13] = test system: HOP-18
[14] = test system: IGROV-1
[15] = test system: SW-620
[16] = test system: LOX IMVI
[17] = test system: NCI-H23
[18] = test system: U-251
[19] = test system: NCI-H522
[20] = test system: OVCAR-4
[21] = test system: DLD-1
[22] = test system: SNB-75
[23] = test system: KM-20L2
[24] = test system: SNB-78
[25] = test system: DMS-114
[26] = test system: SF-295
[27] = test system: UACC-257
[28] = test system: CCRF-CEM
[29] = test system: SK-MEL-28
[30] = test system: OVCAR-5
[31] = test system: SK-MEL-2
[32] = test system: SK-OV-3
[33] = test system: TK-10
[34] = test system: M19-MEL
[35] = test system: NCI-H226
[36] = test system: HOP-62
[37] = test system: SK-MEL-5
[38] = test system: K562
[39] = test system: HT-29
[40] = test system: OVCAR-3
[41] = test system: A498
[42] = test system: M14
[43] = test system: Malme-3M
[44] = test system: MOLT-4
[45] = test system: 786-0
[46] = test system: DMS-273
[47] = test system: SF-539
[48] = test system: A549
[49] = test system: NCI-H460
[50] = test system: KM12
[51] = test system: EKVX
[52] = test system: HL-60
[53] = test system: NCI/ADR-RES
[54] = test system: XF498
[55] = test system: MCF7
[56] = test system: SN12C
[57] = test system: HOP-92
[58] = test system: HCT-15

## CCOC(=O)/C([O-])=C(\C(=O)OCC)[n+]1c(C)n(C)c2ccccc21
[1]
  GI50: > 100 µM (inactive)
[2]
  GI50: > 100 µM (inactive)
[3]
  GI50: > 100 µM (inactive)
[4]
  GI50: > 100 µM (inactive)
[5]
  GI50: > 100 µM (inactive)
[6]
  GI50: > 100 µM (inactive)
[7]
  GI50: > 100 µM (inactive)
[8]
  GI50: > 100 µM (inactive)
[9]
  GI50: > 100 µM (inactive)
[10]
  GI50: > 100 µM (inactive)
[11]
  GI50: > 100 µM (inactive)
[12]
  GI50: > 100 µM (inactive)
[13]
  GI50: > 100 µM (inactive)
[14]
  GI50: > 100 µM (inactive)
[15]
  GI50: > 100 µM (inactive)
[16]
  GI50: > 100 µM (inactive)
[17]
  GI50: > 100 µM (inactive)
[18]
  GI50: > 100 µM (inactive)
[19]
  GI50: > 100 µM (inactive)
[20]
  GI50: > 100 µM (inactive)
[21]
  GI50: > 100 µM (inactive)
[22]
  GI50: > 100 µM (inactive)
[23]
  GI50: > 100 µM (inactive)
[24]
  GI50: > 100 µM (inactive)
[25]
  GI50: > 100 µM (inactive)
[26]
  GI50: > 100 µM (inactive)
[27]
  GI50: > 100 µM (inactive)
[28]
  GI50: > 100 µM (inactive)
[29]
  GI50: > 100 µM (inactive)
[30]
  GI50: > 100 µM (inactive)
[31]
  GI50: > 100 µM (inactive)
[32]
  GI50: > 100 µM (inactive)
[33]
  GI50: > 100 µM (inactive)
[34]
  GI50: > 100 µM (inactive)
[35]
  GI50: > 100 µM (inactive)
[36]
  GI50: > 100 µM (inactive)
[37]
  GI50: > 100 µM (inactive)
[38]
  GI50: > 100 µM (inactive)
[39]
  GI50: > 100 µM (inactive)
[40]
  GI50: > 100 µM (inactive)
[41]
  GI50: > 100 µM (inactive)
[42]
  GI50: > 100 µM (inactive)
[43]
  GI50: > 100 µM (inactive)
[44]
  GI50: > 100 µM (inactive)
[45]
  GI50: > 100 µM (inactive)
[46]
  GI50: > 100 µM (inactive)
[47]
  GI50: > 100 µM (inactive)
[48]
  GI50: > 100 µM (inactive)
[49]
  GI50: > 100 µM (inactive)
[50]
  GI50: > 100 µM (inactive)
[51]
  GI50: > 100 µM (inactive)
[52]
  GI50: > 100 µM (inactive)

## CCCCC(C)C1CCC2(C)C=CC(=O)C(C)=C2C1O (stereo unspecified)
[1]
  GI50: > 100 µM (inactive)
[53]
  GI50: > 100 µM (inactive)
[2]
  GI50: > 100 µM (inactive)
[3]
  GI50: > 100 µM (inactive)
[4]
  GI50: > 100 µM (inactive)
[5]
  GI50: > 100 µM (inactive)
[6]
  GI50: > 100 µM (inactive)
[7]
  GI50: > 100 µM (inactive)
[8]
  GI50: > 100 µM (inactive)
[10]
  GI50: > 100 µM (inactive)
[11]
  GI50: > 100 µM (inactive)
[12]
  GI50: > 100 µM (inactive)
[54]
  GI50: > 100 µM (inactive)
[13]
  GI50: > 100 µM (inactive)
[14]
  GI50: > 100 µM (inactive)
[15]
  GI50: > 100 µM (inactive)
[16]
  GI50: > 100 µM (inactive)
[17]
  GI50: > 100 µM (inactive)
[18]
  GI50: > 100 µM (inactive)
[19]
  GI50: > 100 µM (inactive)
[20]
  GI50: > 100 µM (inactive)
[21]
  GI50: > 100 µM (inactive)
[22]
  GI50: > 100 µM (inactive)
[23]
  GI50: > 100 µM (inactive)
[24]
  GI50: > 100 µM (inactive)
[25]
  GI50: > 100 µM (inactive)
[26]
  GI50: > 100 µM (inactive)
[55]
  GI50: > 100 µM (inactive)
[27]
  GI50: > 100 µM (inactive)
[28]
  GI50: > 100 µM (inactive)
[29]
  GI50: > 100 µM (inactive)
[30]
  GI50: > 100 µM (inactive)
[31]
  GI50: > 100 µM (inactive)
[32]
  GI50: > 100 µM (inactive)
[34]
  GI50: > 100 µM (inactive)
[35]
  GI50: > 100 µM (inactive)
[36]
  GI50: > 100 µM (inactive)
[37]
  GI50: > 100 µM (inactive)
[38]
  GI50: > 100 µM (inactive)
[39]
  GI50: > 100 µM (inactive)
[40]
  GI50: > 100 µM (inactive)
[41]
  GI50: > 100 µM (inactive)
[44]
  GI50: > 100 µM (inactive)
[56]
  GI50: > 100 µM (inactive)
[46]
  GI50: > 100 µM (inactive)
[47]
  GI50: > 100 µM (inactive)
[48]
  GI50: > 100 µM (inactive)
[57]
  GI50: > 100 µM (inactive)
[49]
  GI50: > 100 µM (inactive)
[50]
  GI50: > 100 µM (inactive)
[51]
  GI50: > 100 µM (inactive)
[58]
  GI50: > 100 µM
[52]
  GI50: > 100 µM (inactive)

## CC1C(O)C2(Oc3cc4c(c5c3[C@@H](CC5O)[C@H]2C)CCC2Cc3nc5c(nc3C[C@@]42C)CC2CCC3C4=C[C@H]6O[C@@]7(O[C@@](C)(CO)C[C@@H]7O)C(C)[C@@]6(O)[C@]4(C)[C@@H](O)CC3[C@]2(C)C5)OC1(C)C (stereo partly specified)
[53]
  GI50: 2.9 µM (inactive)
[2]
  GI50: 0.0269 µM (active)
[3]
  GI50: 1.08 µM (active)
[4]
  GI50: 0.12 µM (active)
[5]
  GI50: 0.428 µM (active)
[6]
  GI50: 0.152 µM (active)
[7]
  GI50: 0.536 µM (active)
[8]
  GI50: 0.0877 µM (active)
[10]
  GI50: 0.0364 µM (active)
[11]
  GI50: 0.0904 µM (active)
[12]
  GI50: 0.148 µM (active)
[54]
  GI50: 0.115 µM (active)
[13]
  GI50: 2.01 µM (inactive)
[14]
  GI50: 0.128 µM (active)
[15]
  GI50: 0.201 µM (active)
[16]
  GI50: 0.115 µM (active)
[17]
  GI50: 0.114 µM (active)
[18]
  GI50: 0.00302 µM (active)
[19]
  GI50: 0.123 µM (active)
[20]
  GI50: 0.498 µM (active)
[21]
  GI50: 1.1 µM (active)
[22]
  GI50: 0.00543 µM (active)
[23]
  GI50: 0.0975 µM (active)
[24]
  GI50: 0.0494 µM (active)
[25]
  GI50: 0.104 µM (active)
[26]
  GI50: 0.00531 µM (active)
[55]
  GI50: 0.117 µM (active)
[27]
  GI50: 0.614 µM (active)
[28]
  GI50: 0.0582 µM (active)
[30]
  GI50: 0.435 µM (active)
[31]
  GI50: 0.114 µM (active)
[32]
  GI50: 0.139 µM (active)
[34]
  GI50: 0.863 µM (active)
[35]
  GI50: 0.135 µM (active)
[36]
  GI50: 0.0715 µM (active)
[37]
  GI50: 0.237 µM (active)
[38]
  GI50: 0.098 µM (active)
[39]
  GI50: 0.0977 µM (active)
[40]
  GI50: 0.0891 µM (active)
[41]
  GI50: 0.0652 µM (active)
[43]
  GI50: 0.0927 µM (active)
[56]
  GI50: 0.377 µM (active)
[46]
  GI50: 0.0304 µM (active)
[47]
  GI50: 0.078 µM (active)
[48]
  GI50: 0.0581 µM (active)
[57]
  GI50: 0.204 µM (active)
[49]
  GI50: 0.0735 µM (active)
[50]
  GI50: 0.241 µM (active)
[51]
  GI50: 0.123 µM (active)
[58]
  GI50: 0.649 µM
[52]
  GI50: 0.0644 µM (active)
